Test system: human colon carcinoma cell strain WiDr
Assay: Microarray analysis (Human Genome U133 plus 2.0 array) of mRNA expression in WiDr cells treated with compound A
Type: cell-based
Settings: 2.8 nM, 6 h, ratio to control
Procedure: Microarray analysis (Human Genome U133 plus 2.0 array: Affymetrix) was carried out using RNA purified from human colon carcinoma cell strain WiDr treated with 2.8 nM and 14 nM of (8E,12E,14E)-7-((4-Cycloheptylpiperazin-1-yl)carbonyl)oxy-3,6,16,21-tetrahydroxy-6,10,12,16,20-pentamethyl-18,19-epoxytricosa-8,12,14-trien-11-olide (hereinafter also referred to as “compound A”) for six hours.
WiDr cells were first suspended in RPMI1640 medium (containing 10% FBS, penicillin, and streptomycin) and seeded in a 10 cm dish (2×10^6 cells/dish). After an overnight culture in an incubator with 5% carbon dioxide gas at 37° C., the medium was changed with medium containing 2.8 nM and 14 nM of compound A or containing vehicle alone. After cultured additional six hours, TRI reagent (SIGMA) was added to cells, and the cells were harvested. RNA was purified in accordance with the protocol of TRI reagent, followed by further purification with RNeasy (QIAGEN). Absorbance at 260 nm was measured to quantify an amount of RNA.
Subsequently, single stranded cDNA synthesis, double stranded cDNA synthesis, biotin-labeled cRNA synthesis, and cRNA fragmentation in order were carried out from 5-10 μg (WiDr 10 μg, PBMC 5 μg) of total RNA from the control cells and the treated cells, by using One-Cycle Target Labeling and Control Reagents (Affymetrix). cRNA probe was used for hybridization with Human Genome U133 Plus 2.0 Array (Affymetrix). The array was then washed and stained, and luminescence intensity was measured by a scanner.
The RMA method was applied to 33 of .cel files obtained in the microarray experiment and log signal intensity at a gene level normalized with log signal intensity at a probe level was obtained. By subtracting the mean between control 1 and control 3 from the mean between log signal intensity 1 and log signal intensity 3 for each case, the log signal intensity was converted into a log signal ratio to the control. A t-test was conducted between each log signal intensity and control, and candidate genes were narrowed down in the basis of a p-value, a log signal ratio, and a signal value. Specifically, genes showing that the P value was 5% or less; the expression level in the untreated (control) is 100 or more by signal value; and the expression level when treated with both 2.8 nM and 14 nM of compound A is, compared to the control, 25% or less, were picked out. The software used is R2.2.1 (http://www.r-project.org/), affy package 1.8.1 (http://www.bioconductor.org).
Genes showing that, by the treatment with compound A, the P value was 5% or less; the expression level in the untreated (control) is 100 or more by signal value; and the expression level when treated with both 2.8 nM and 14 nM of compound A is, compared to the control, 25% or less, and results thereof were shown in Table 1. Probe ID used in Table 1 represents Human Genome U133 Plus 2.0 Array Probeset ID. In Table 1, for each gene evaluated, gene name (Gene Name), abbreviated name (Gene Symbol), accession number (Accession), alias name (Synonym), Probe set number in Human Genome U133 Plus 2.0 Array (Human Genome U133 Plus 2.0 Array Probeset ID), the expression level upon the six-hour treatment with 2.8 nM of E7107 (2.8 nM (6 h)), and the expression level upon the six-hour treatment with 14 nM of E7107 (14 nM (6 h)) were respectively shown.

CCC(O)C(C)C1OC1CC(C)(O)/C=C/C=C(\C)C1OC(=O)CC(O)CCC(C)(O)C(OC(=O)N2CCN(C3CCCCCC3)CC2)/C=C/C1C (stereo not drawn) [E7107, (8E,12E,14E)-7-((4-Cycloheptylpiperazin-1-yl)carbonyl)oxy-3,6,16,21-tetrahydroxy-6,10,12,16,20-pentamethyl-18,19-epoxytricosa-8,12,14-trien-11-olide]
0.23: ADPRHL2 mRNA expression level (223097_at) | C6orf136 mRNA expression level (227455_at) | CARD10 mRNA expression level (210026_s_at) | FRY mRNA expression level (204072_s_at) | KIAA0323 mRNA expression level (212355_at) | MASTL mRNA expression level (228468_at) | NOC3L mRNA expression level (218889_at) | ORC5L mRNA expression level (204957_at) | PAXIP1 mRNA expression level (212825_at) | PIK3C3 mRNA expression level (204297_at) | RPS6KC1 mRNA expression level (218909_at) | ZC3HAV1L mRNA expression level (228280_at)
0.17: ATP6V0A2 mRNA expression level (205704_s_at) | C15orf40 mRNA expression level (1552310_at) | EVI1 mRNA expression level (226420_at) | KIAA0859 mRNA expression level (212405_s_at) | MND1 mRNA expression level (223700_at) | RBBP6 mRNA expression level (212783_at) | RBMS1 mRNA expression level (209868_s_at) | SFXN1 mRNA expression level (230069_at) | Transcribed locus mRNA expression level (230098_at) | WBP4 mRNA expression level (203598_s_at)
0.10: FGF19 mRNA expression level (223761_at) | UNC50 mRNA expression level (203583_at)
0.16: C1orf79 mRNA expression level (223774_at) | C7orf36 mRNA expression level (223433_at) | CLDND1 mRNA expression level (208925_at) | EHBP1 mRNA expression level (212653_s_at) | FLJ20628 mRNA expression level (221229_s_at) | PLEKHA5 mRNA expression level (220952_s_at) | POLD3 mRNA expression level (212836_at) | TUBGCP3 mRNA expression level (203690_at) | Transcribed locus, strongly similar to NP_689873.1 mRNA expression level (228638_at) | ZMIZ1 mRNA expression level (212124_at)
0.09: DAPK1 mRNA expression level (203139_at) | WDR67 mRNA expression level (214061_at)
0.22: ANGEL2 mRNA expression level (221825_at) | C17orf80 mRNA expression level (223351_at) | CCNE2 mRNA expression level (205034_at) | E2F7 mRNA expression level (228033_at) | Full-length cDNA clone CS0DL007YI24 of B cells (Ramos cell line) mRNA expression level (226648_at) | KIN mRNA expression level (205664_at) | METTL4 mRNA expression level (219698_s_at) | NIN mRNA expression level (225921_at) | PMS1 mRNA expression level (213677_s_at) | REPS1 mRNA expression level (224366_s_at) | SLC37A1 mRNA expression level (218928_s_at) | TTC4 mRNA expression level (46167_at)
0.24: ATP2A2 mRNA expression level (212361_s_at) | C20orf112 mRNA expression level (225224_at) | CASC5 mRNA expression level (228323_at) | CDNA FLJ34214 fis, clone FCBBF3021807 mRNA expression level (227087_at) | CLIP1 mRNA expression level (201975_at) | DNAJC16 mRNA expression level (212908_at) | ELL3 mRNA expression level (219518_s_at) | FCHO2 mRNA expression level (228220_at) | GRHL1 mRNA expression level (222830_at) | INTS7 mRNA expression level (222250_s_at) | METTL3 mRNA expression level (209265_s_at) | NPC1 mRNA expression level (202679_at) | PHF20L1 mRNA expression level (226942_at) | PPM1B mRNA expression level (209296_at) | SLC17A5 mRNA expression level (223441_at) | SMUG1 mRNA expression level (218685_s_at) | TMEM177 mRNA expression level (218897_at) | Transcribed locus, strongly similar to NP_002194.1 integrin alpha 2 precursor mRNA expression level (227314_at) | WDR26 mRNA expression level (218107_at)
0.13: CDC6 mRNA expression level (203967_at) | RFC4 mRNA expression level (204023_at) | RIF1 mRNA expression level (226821_at) | TSEN2 mRNA expression level (219581_at)
0.20: ARMC8 mRNA expression level (203486_s_at) | ATP2B1 mRNA expression level (212930_at) | BPTF mRNA expression level (232909_s_at) | C1orf82 mRNA expression level (222893_s_at) | C5orf28 mRNA expression level (219029_at) | C7orf49 mRNA expression level (220949_s_at) | IXL mRNA expression level (225708_at) | KCNE3 mRNA expression level (227647_at) | KIF2C mRNA expression level (211519_s_at) | KLHL12 mRNA expression level (225068_at) | MKRN1 mRNA expression level (201285_at) | MYOHD1 mRNA expression level (225947_at) | NCOA5 mRNA expression level (225145_at) | TNS3 mRNA expression level (217853_at)
0.21: CCDC14 mRNA expression level (225017_at) | HDAC4 mRNA expression level (204225_at) | LIPG mRNA expression level (219181_at) | MLL2 mRNA expression level (227527_at) | NUPL2 mRNA expression level (204003_s_at) | PCGF1 mRNA expression level (210023_s_at) | PPWD1 mRNA expression level (213483_at) | RBM17 mRNA expression level (224780_at) | TAF4 mRNA expression level (213090_s_at) | TRIP4 mRNA expression level (203732_at) | Transcribed locus mRNA expression level (235609_at) | ZKSCAN1 mRNA expression level (214670_at) | mRNA expression level, probeset 228106_at (gene name not given) | mRNA expression level, probeset 235436_at (gene name not given)
0.18: CDC7 mRNA expression level (204510_at) | KIAA0776 mRNA expression level (212633_at) | KIF21A mRNA expression level (226003_at) | POLR3E mRNA expression level (222490_at) | RAD54B mRNA expression level (219494_at) | SYTL2 mRNA expression level (232914_s_at) | Transcribed locus mRNA expression level (230177_at) | ZCCHC6 mRNA expression level (220933_s_at) | ZNF518 mRNA expression level (204291_at)
0.11: FKSG44 mRNA expression level (227964_at) | LOC51315 mRNA expression level (218303_x_at) | MCM10 mRNA expression level (220651_s_at) | Transcribed locus, moderately similar to XP_518244.1 mRNA expression level (235046_at)
0.12: C7orf23 mRNA expression level (204215_at) | IREB2 mRNA expression level (225892_at) | NUPL1 mRNA expression level (223984_s_at)
0.15: C1orf63 mRNA expression level (209006_s_at) | FANCL mRNA expression level (218397_at) | JAGN1 mRNA expression level (223104_at) | LOC124512 mRNA expression level (225808_at) | NR2C1 mRNA expression level (204791_at)
0.25: ERCC3 mRNA expression level (202176_at) | JUB mRNA expression level (225806_at) | PHACTR4 mRNA expression level (226823_at) | SLC25A19 mRNA expression level (223222_at) | TRIM31 mRNA expression level (210159_s_at)
0.19: C12orf32 mRNA expression level (225837_at) | FAM86C mRNA expression level (65585_at) | FBXL5 mRNA expression level (209004_s_at) | SHPRH mRNA expression level (226366_at) | SMEK2 mRNA expression level (226230_at) | STAMBPL1 mRNA expression level (227606_s_at) | STXBP3 mRNA expression level (203310_at)

— US20100086931A1, “METHOD FOR ASSAYING ACTION OF ANTITUMOR AGENT USING DECREASE IN GENE EXPRESSION LEVEL AS INDEX” (Eisai R&D Management Co., Ltd., priority 2007, published 2010)
